Tested on: Liver microsomes
Test: Metabolic stability in human liver microsomes
Format: ADME, Microsome

Stability [%]	SMILES
31	O=C(Nc1ccc(-n2nc(-c3cccnc3)cc2C(F)(F)F)nn1)c1ccccc1
36	O=C(Nc1ccc(-n2nc(-c3cccnc3)cc2C(F)(F)F)cn1)c1ccccc1

Reference: ChEMBL document CHEMBL1268990, “Substituted pyrazoles as novel sEH antagonist: investigation of key binding interactions within the catalytic domain” (Bioorg Med Chem Lett, 2010)
